Test results from paper PMC7355684 (Pharmaceutics, 2020).
Where a SMILES comes first, the peptide text is derived from it. The star is where a group is joined. Daunorubicin(13-NOCH2CO) = COc1cccc2c1C(=O)c1c(O)c3c(c(O)c1C2=O)C[C@@](O)(C(C)=NOCC(=O)*)C[C@@H]3O[C@H]1C[C@H](N)[C@H](O)[C@H](C)O1

Assays:
[1] = Acute and chronic toxicity in healthy mice; type: in vivo; conditions: healthy Balb/c male mice, 3 per group; i.p.; acute 3.125, 6.25, 12.5, 25 mg/kg Dau-content single; chronic 10 mg/kg Dau-content on days 1, 3, 7, 9, 11; 14 days
Protocol: Prior to the determination of in vivo antitumor activity, the acute and chronic toxicity studies of conjugate 4 (Dau=Aoa-GFLG-K(Dau=Aoa)-SKAAKN-OH) were investigated. Healthy Balb/c male mice (3 animals in each group with 29–33 g body weight) were used for these experiments. The conjugate was dissolved in sterile water for injection (Pharmamagist Kft., Budapest, Hungary) and injected in a volume of 0.1 mL/10 g body weight using the appropriate concentrations. In acute toxicity study, intraperitoneal (i.p.) administration of the conjugate 4 was carried out in 4 different doses: 3.125, 6.25, 12.5 and 25 mg/kg Dau-content. In chronic toxicity study, mice were treated with a dose of 10 mg/kg Dau-content of the conjugate on days 1, 3, 7, 9 and 11 (5 treatments). The toxicity was evaluated on the basis of life span, behavior and looking of the mice, as well as body weight. These parameters were followed for 14 days.

[2] = test system: EBC-1 cells; type: cell-based, human; conditions: 1e-5 M
Protocol: (§1) EBC-1 and Colo-205 model cells have weak/negligible adherent properties, and A2058 cells could not produce constant cell index values. Therefore, a colorimetric assay (alamarBlue-assay) was chosen instead of the xCELLigence system to investigate the viability of these model cells treated with the conjugates. Due to the growth characteristics of NHDF cells, alamarBlue-assay was performed also on this cell line.
(§2) The protocol for the alamarBlue-assay was similar to the method which was published earlier, with some minor modifications. Briefly, the cell seeding occurred on 96-well cell culture plates (Sarstedt AG, Nümbrecht, Germany) at 10^4 cells/well concentration. After a 24 h long culturing period, the treatment was carried out with the conjugates at 10^−4, 10^−5 and 10^−6 M final concentrations for 24, 48 and 72 h. In the next steps, the alamarBlue reagent (0.15 mg/mL, Sigma-Aldrich) dissolved in phosphate-buffered saline (PBS; pH = 7.2), was added to the wells. After 6 h incubation with the reagent, the fluorescence intensity of the samples was obtained by an LS-50B Luminescence Spectrometer (Perkin Elmer Ltd., Buckinghamshire, UK) or a Fluoroskan^TM FL Microplate Fluorometer and Luminometer (Thermo Scientific, Waltham, MA, USA) by using the following settings: λex = 560 nm and λem = 590 nm.
(§3) Three parallels were performed per treatment group. In the case of controls, an equivalent volume of cell culture media was added to the cell. Fluorescence intensities of the samples treated with various concentrations of conjugates were expressed as a percentage of the fluorescence of control.

[3] = test system: Colo-205 cells; type: cell-based, human; conditions: 1e-5 M
Protocol: as §1, §2, §3

[4] = test system: A2058 cells; type: cell-based, human; conditions: 1e-5 M
Protocol: as §1, §2, §3

[5] = test system: PANC-1 cells; assay: cells; type: cell-based, human
Protocol: This measurement is based on the registration of electrical resistance (impedance, Z) in alternating current (AC) field. The living cells transplanted to the gold measuring electrodes are physically insulated by phospholipid bilayer that covers them. This instrumentally measurable property changes (decreases) in response to cellular cytotoxic agents. Our measurements were performed on xCELLigence single plate (ACEA Biosciences, San Diego, CA, USA) dedicated for impedimetric analysis of cellular samples at 37 °C and 5% CO2.
During the initial phase of the experiments—the baseline recording—a special 96-well cell culture plate, E-plate (ACEA Biosciences), equipped with measuring electrodes, was pretreated with freshly prepared cell culture medium (for 60 min; sampling frequency: 1 min). Subsequently, PANC-1 cells were plated at a cell density of 10^4 cells/well. During the 24 h incubation, the cells evenly covered the electrodes at the bottom of the wells of the E-plate. The resulting confluent cell cultures were then treated with the test substances at the following final concentrations: 10^−6, 10^−5, 10^−4 M. Total treatment duration was 72 h and the sampling rate was 1 min (0–24 h); and then 15 min (48–72 h). In our measurements, three replicates were used, the control was the drug-free medium. […] The CI results were analyzed with xCELLigence RTCA 2.0 software and Origin Pro 8.0 software.

[6] = test system: PANC-1 cells; assay: Colorimetric (alamarBlue) cytotoxicity on PANC-1; type: cell-based; conditions: Homo sapiens, concentration needed to decrease the cell viability by 50%, read-out: IC50 (colorimetry)
Protocol: as §2
Three parallels were performed per treatment group. […] Fluorescence intensities of the samples treated with various concentrations of conjugates were expressed as a percentage of the fluorescence of control.
To confirm that the different methods can be used to compare the effects of conjugates on the different model cells, the cytotoxicity of Dau was measured by both impedimetric and colorimetric methods on PANC-1 cells.

[7] = in vivo; cited from earlier work
From the text: Daunomycin (Dau) was applied as a payload. It was indicated in our previous research that Dau can be attached to peptides via oxime linkage easily with good yields. […] It might be because of the lower DNA binding affinity of the Dau containing metabolite compared to Dau. However, the oxime linked conjugates are stable in the circulation and no loss of Dau can be observed before reaching the target cells.

[8] = test system: PANC-1 cells; assay: Flow cytometric cell surface binding and internalization; type: cell-based, human; conditions: 10^-5 M, flow cytometry, mean of 2 parallels ± SD
Protocol: Cell surface binding and internalization of the conjugates were performed by flow cytometry (FACS-Calibur, Becton Dickinson, San Jose, CA, USA) based on the detection of the fluorescence activity of Dau (λex = 488 nm, λem = 585 nm) linked to the peptides. Studies of binding and uptake were performed on PANC-1 cells.
Cells were seeded (2.5 × 10^5 cells/mL, 900 μL/well) on 12-well plates, 24 h prior to the treatment with conjugates and free Dau. To distinguish the cell surface binding and internalization of conjugates, the cells were treated with the conjugate solutions at a final concentration of 10^−5 M at two temperatures (37 °C and 4 °C) in parallel. After the incubation period of 30 min, cells were washed with PBS and were removed from the plate using TrypLE (Thermo Fisher Scientific, Waltham, MA, USA) cell-dissociation reagent, thus avoiding cell surface protein degradation. […] After the centrifugation of the cell suspension, the cell pellets were resuspended in PBS (400 μL/tube) and the samples were measured by a flow cytometer.
To determine the fluorescence intensity and to evaluate the results CellQuest Pro (Becton Dickinson) and Flowing2.5.1. […] The instrument determines the relative fluorescence intensity of Dau built in the conjugates as geometric mean channel (GeoMean) value. […]

[9] = test system: s.c. PANC-1 human pancreatic carcinoma; assay: Subcutaneous PANC-1 human pancreatic cancer mouse model; type: in vivo, SCID mice
Protocol: For establishing pancreatic tumor in experimental animals, PANC-1 cells were used, which were cultured in RPMI 1640 medium (Lonza), supplemented with 10% heat-inactivated FBS (Biosera, Nuaille, France), and 1% penicillin/streptomycin (Lonza). They were cultured in sterile T175 flasks (Sarstedt AG) with a ventilation cap at 37 °C in a humidified atmosphere with 5% CO2.
Pancreatic cancer (PANC-1) cells were injected into SCID male mice (22–34 g) subcutaneously (s.c.), 3 × 10^6 cells per animal in 200 µL M199 (Sigma-Aldrich) per animal. The (i.p.) administration of treatment started 10 days after cells inoculation when the average tumor volume was 36 mm^3. Four groups with 7 animals per group were established and treated. The doses and schedule were as follows: control group was treated with sterile water used for the solubilization of Dau and the conjugates, while animals in the group administered with free Dau were treated on days 10, 19 and 24 after cell inoculation with a dose of 1 mg/kg. Mice administered with the conjugate 4 were separated in two groups and treated either with a dose of 10 mg/kg Dau-content (21.6 mg/kg conjugate) or with a dose of 2 mg/kg Dau-content (4.3 mg/kg conjugate) on days 10, 13, 19, 21, 24, 28, 31, 34, 39, 42, 46, 49, 53, 56, 60, 63, 67 and 70 after cells inoculation. Animal weight and tumor volumes were measured initially when the treatment started and at periodic intervals according to the treatment schedule. A digital caliper was used to measure the longest (a) and the shortest diameter (b) of a given tumor. The tumor volume was calculated using the formula V = ab^2 × π/6, where a and b represent the measured parameters (length and width). The experiment was terminated on day 74 after cells inoculation (day 65 of treatment). Animals treated with free Dau had to be terminated after 3 treatments on day 28 after cells inoculation (day 19 of treatment) due to significant weight-loss. Animals were sacrificed by cervical dislocation; primary tumors and livers were harvested and weighted.

SMILES | Acute and chronic toxicity (body weight, general looking, behavior) [1] | Viability (%) at 10-5 M concentration, after 72 h incubation, EBC-1 [2] [%] | Viability (%) at 10-5 M concentration, after 72 h incubation, Colo-205 [3] [%] | Viability (%) at 10-5 M concentration, after 72 h incubation, A2058 [4] [%] | Cell viability at 10^−6 M ([5]; 24 h, 1e-6 M) | Viability after 24 h ([5]; 24 h, 1e-5 M) [%] | IC50 [6] [nM] | Maximum tolerated dose (MTD) [7] [mg/kg] | Relative fluorescence intensity (GeoMean values), Cellular uptake ([8]; 30 min, GeoMean at 37 °C minus GeoMean at 4 °C) | Relative fluorescence intensity (GeoMean values), Binding ([8]; 30 min at 4 °C, Dau fluorescence, corrected for autofluorescence) | Animal weight decrease compared to start of the experiment ([9]; free Dau 1 mg/kg i.p., 3 treatments, day 28 after cell inoculation) [%] | Decrease of average liver/body weight ratio vs control ([9]; free Dau 1 mg/kg i.p., three times, day 28 after cell inoculation) [%] | Inhibition of tumor growth (tumor volume) ([9]; free Dau 1 mg/kg i.p., day 28 after cell inoculation (day 19 of treatment)) [%] | Liver / body weight (printed in Figure 9D, %) ([9]; free Dau 1 mg/kg, three treatments, day 28, relative to control) [%] | IC50 ([5]; Homo sapiens, PANC-1, read-out: IC50 (impedimetry)) [nM]
COc1cccc2c1C(=O)c1c(O)c3c(c(O)c1C2=O)C[C@@](O)(C(C)=NOCC(=O)NCCCC[C@H](NC(=O)CNC(=O)[C@H](CC(C)C)NC(=O)[C@H](Cc1ccccc1)NC(=O)CNC(=O)CON=C(C)[C@]1(O)Cc2c(O)c4c(c(O)c2[C@@H](O[C@H]2C[C@H](N)[C@H](O)[C@H](C)O2)C1)C(=O)c1c(OC)cccc1C4=O)C(=O)N[C@@H](CO)C(=O)N[C@@H](CCCCN)C(=O)N[C@@H](C)C(=O)N[C@@H](C)C(=O)N[C@@H](CCCCN)C(=O)N[C@@H](CC(N)=O)C(=O)O)C[C@@H]3O[C@H]1C[C@H](N)[C@H](O)[C@H](C)O1 [conjugate 4, Dau=Aoa-GFLG-K(Dau=Aoa)SKAAKN-OH] ({Daunorubicin(13-NOCH2CO)}-GFLGK(Daunorubicin(13-NOCH2CO))SKAAKN-OH) | not toxic at the applied concentrations | 32.2 ± 4.2 | 19.8 ± 0.5 | 29.8 ± 4.5 | higher than 100% | 91 | – | – | – | – | – | – | – | – | –
COc1cccc2c1C(=O)c1c(O)c3c(c(O)c1C2=O)C[C@@](O)(C(C)=O)C[C@@H]3O[C@H]1C[C@H](N)[C@H](O)[C@H](C)O1 [Dau, Daunomycin] | – | – | – | – | – | – | 179 | 1 to 2 | 702.048 ± 84.340 | 72.057 ± 3.907 | 21 | 29.1 | 35.7 | 70.9 | 189
